Laboratory results published in US10195178B2, “GPR40 agonists in anti-diabetic drug combinations” (Janssen Pharmaceutica NV, priority 2016, dated 2019).
“And” between values parts separate entries of the source, which are not always exact repeats. Equal values may be shown once.

How the values were obtained:
[1] = system: SD rats; assay: Oral Glucose Tolerance Test: Canagliflozin Combination with GPR40 Agonist; format: in vivo; details: SD rat OGTT; for Blood glucose 0 min / Blood glucose 30 min / Blood glucose 60 min / Blood glucose 120 min / Blood glucose AUC / Blood glucose AUC % of Vehicle: single oral dose 60 min before glucose 2 g/kg; for Blood glucose AUC / Blood glucose AUC % of Vehicle: AUC 0-120 min
Method: We have evaluated the blood glucose (BG) lowering effect of canagliflozin (Cana) combined with a GPR40 agonist Cpd 2 in SD rat studies. Overnight fasted SD rats received either a single treatment of Cana or Cpd 2 or a combination of both. An oral glucose tolerance test (OGTT) was followed at 60 min post compound administration. […] The two-sided Z Test and Delta method were applied to statistically determine the treatment additivity of combinations using blood glucose AUC values. Results indicated the treatments were additive in the combinations of Canagliflozin at 1 or 3 mg/kg and Cpd 2 at 0.3 or 1 mg/kg.
• A. The formulation of Canagliflozin was prepared by directly adding the required amount of 0.5% HPMC to the compound and stirring overnight. • B. The formulation of Cpd 2 was prepared following steps listed below: • a. One equivalent (amount of compound/compound MW) of 1N NaOH was added to dry compound to enhance water solubility (due to compound itself is a carboxylic acid). • b. The required volume of 0.5% HPMC was then added; • c. The compound was vortexed and sonicated (without heat) for a minimum of 10 minutes. • d. The compound was then allowed to stir overnight. • C. For the formulation of combination of Canagliflozin (Cana) and Cpd 2: • a. First, a formulation of double concentrations of each compound was prepared.
• b. Right before dosing, the double-concentrated formulation of Cpd 2 was mixed with an equal volume of the double-concentrated formulation of Canagliflozin, such that each compound was as 1× concentration. • D. The dosing volume for all the experiments was 10 mL/kg Experimental Design
Male SD rats (225-245 g of body weight, purchased from Charles River) were used in this study. SD rats were housed 2 per cage in a temperature-controlled room with 12-hour light/dark cycle (6 am-6 pm lights on). They are allowed ad libitum access to water and fed with Purina 5K75 (LabDiet, St. Louis, Mo.).
SD rats were fasted overnight. In the morning of the next day, these rats were grouped into the following 12 groups based on their fasted blood glucose levels determined by a glucometer (LifeScan, New Brunswick, N.J.) and body weight.
At −60 minutes BG values were collected via tail bleeding. Next, rats were dosed orally with vehicle or compounds in vehicle. Then, at 0 minutes, rats were bled via tail vein to determine BG levels and dosed orally with glucose (2 g/kg; 50% glucose, 4 mL/kg). Blood samples were collected at 30, 60, and 120 minutes after oral glucose administration for BG determination.
Statistical analysis were performed using the program Prism (Graphpad, Monrovia, Calif.) with either a repeated measures 1-way ANOVA (glucose and insulin curves with Tukey's post-test) or a one-way ANOVA and Tukey's multiple comparison test (AUC, delta AUC and percent vehicle). All data are presented as the mean±standard error of the mean (SEM).
The two-sided Z Test and Delta method was applied to statistically determine the treatment additivity of combinations.

[2] = molecular target: human GPR40 (Homo sapiens (Human), UniProt O14842); assay: GPR40 Calcium Flux Assay; format: cell-based; details: transfected HEK293 cells stably expressing human GPR40; mean data; read-out: hGPR40 Ca2+ Assay EC50
Method: Compounds were tested in a calcium flux assay using transfected HEK293 cells stably expressing either human GPR40 or rat GPR40. Human GPR40 expressing cells were cultured in DMEM-High Glucose media supplemented with 10% fetal bovine serum, 1×L-Glutamine, 1×Penicillin/Streptomycin and 500 μg/mL G418. Rat GPR40 expressing cells were cultured in DMEM-High Glucose media supplemented with 10% fetal bovine serum and 1 μg/mL puromycin. Cells were plated into poly-D-lysine coated 384-well plates and cultured overnight in a 37° C. humidified tissue culture incubator under 5% CO2/[…] atmosphere. On the day of the experiment, the culture media was replaced with assay buffer (HBSS, 20 mM HEPES, 0.1% BSA) and the cells incubated at 37° C. for 1 h. Calcium-sensitive fluorescent dye (Fluo 8 No-Wash Calcium Dye, ABD Bioquest) was then added and the cells incubated for another 30 min at 37° C. followed by 15 min at room temperature while protected from the light. The cell plate and a plate of diluted compounds of Formula (I) were loaded into a fluorescent plate reader that added compounds onto the cells while measuring the fluorescence intensity of each well. The plate reader recorded fluorescence intensity at 1 second intervals for 8 min and provided the data for analysis in an Excel format. EC50 values were calculated using Prism (GraphPad) software.

human GPR40, sequence (O14842 whole entry): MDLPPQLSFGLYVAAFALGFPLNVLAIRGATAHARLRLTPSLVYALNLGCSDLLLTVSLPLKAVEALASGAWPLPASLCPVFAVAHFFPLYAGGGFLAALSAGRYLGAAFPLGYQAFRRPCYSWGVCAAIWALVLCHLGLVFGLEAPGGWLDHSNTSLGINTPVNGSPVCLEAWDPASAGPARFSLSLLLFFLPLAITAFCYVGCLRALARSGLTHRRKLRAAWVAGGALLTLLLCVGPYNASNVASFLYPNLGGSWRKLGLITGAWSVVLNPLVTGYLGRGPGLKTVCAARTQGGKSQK

Q: For `Cc1ccc([C@@H]2O[C@H](CO)[C@@H](O)[C@H](O)[C@H]2O)cc1Cc1ccc(-c2ccc(F)cc2)s1` [Cana, canagliflozin], which “Blood glucose lowering during OGTT (in words)” value ([1]; 10 mg/kg) is on record?
A: markedly lowering blood glucose

Q: What about the “Blood glucose 0 min” value ([1]; 1 mpk) of the same molecule?
A: 76.9 ± 2.3 mg/dL

Q: And the “Blood glucose 30 min” value ([1]; 1 mpk)?
A: 162.8 ± 6.5 mg/dL

Q: And the “Blood glucose 60 min” value ([1]; 1 mpk)?
A: 177.8 ± 4.0 mg/dL

Q: What about the “Blood glucose 120 min” value ([1]; 1 mpk) of the same molecule?
A: 135.5 ± 8.2 mg/dL

Q: What about the “Blood glucose AUC” value ([1]; 1 mpk) of the same molecule?
A: 18,099 ± 551 mg/dL/120 min

Q: And the “Blood glucose AUC % of Vehicle” value ([1]; 1 mpk)?
A: 95.4 ± 2.9%

Q: What about the “Blood glucose 0 min” value ([1]; 3 mpk) of the same molecule?
A: 85.1 ± 3.0 mg/dL

Q: And the “Blood glucose 30 min” value ([1]; 3 mpk)?
A: 140.5 ± 5.1 mg/dL

Q: What about the “Blood glucose 60 min” value ([1]; 3 mpk) of the same molecule?
A: 156.4 ± 4.0 mg/dL

Q: And the “Blood glucose 120 min” value ([1]; 3 mpk)?
A: 125.1 ± 9.7 mg/dL

Q: What about the “Blood glucose AUC” value ([1]; 3 mpk) of the same molecule?
A: 16,204 ± 412 mg/dL/120 min

Q: And the “Blood glucose AUC % of Vehicle” value ([1]; 3 mpk)?
A: 85.4 ± 2.2%

Q: What about the “Blood glucose 0 min” value ([1]; 10 mpk) of the same molecule?
A: 73.6 ± 4.4 mg/dL

Q: What about the “Blood glucose 30 min” value ([1]; 10 mpk) of the same molecule?
A: 91.9 ± 6.4 mg/dL

Q: And the “Blood glucose 60 min” value ([1]; 10 mpk)?
A: 103.5 ± 5.4 mg/dL

Q: What about the “Blood glucose 120 min” value ([1]; 10 mpk) of the same molecule?
A: 95.1 ± 3.7 mg/dL

Q: And the “Blood glucose AUC” value ([1]; 10 mpk)?
A: 11,400 ± 459 mg/dL/120 min

Q: And the “Blood glucose AUC % of Vehicle” value ([1]; 10 mpk)?
A: 60.1 ± 2.4%

Q: What does the source list for `CC#C[C@@H](CC(=O)O)c1ccc(OCc2ccc3scc(-c4ccccc4C)c3c2)cc1` [Cpd 2, (3S)-3-[4-[[3-(2-Methylphenyl)benzo[b]thiophen-5-yl]methoxy]phenyl]hex-4-ynoic acid]?
A: Blood glucose 0 min ([1]; 0.3 mpk): 86.1 ± 4.2 mg/dL; Blood glucose 30 min ([1]; 0.3 mpk): 149.0 ± 4.3 mg/dL; Blood glucose 60 min ([1]; 0.3 mpk): 153.1 ± 4.2 mg/dL; Blood glucose 120 min ([1]; 0.3 mpk): 103.3 ± 4.0 mg/dL; Blood glucose AUC ([1]; 0.3 mpk): 15,750 ± 244 mg/dL/120 min; Blood glucose AUC % of Vehicle ([1]; 0.3 mpk): 83.0 ± 1.3%; Blood glucose 0 min ([1]; 1 mpk): 76.1 ± 5.0 mg/dL; Blood glucose 30 min ([1]; 1 mpk): 132.3 ± 6.4 mg/dL; Blood glucose 60 min ([1]; 1 mpk): 139.6 ± 7.3 mg/dL; Blood glucose 120 min ([1]; 1 mpk): 102.4 ± 4.8 mg/dL; Blood glucose AUC ([1]; 1 mpk): 14,464 ± 554 mg/dL/120 min; Blood glucose AUC % of Vehicle ([1]; 1 mpk): 76.2 ± 2.9%

Q: Which EC50 [2] does the source give for `Cc1ccccc1-c1csc2ccc(COc3ccc([C@]4(CC(=O)O)C[C@@H](O)C4)cc3)cc12` [Cpd 31, 2-((1r,3r)-3-Hydroxy-1-(4-((3-(2-methylphenyl)benzo[b]thiophen-5-yl)methoxy)phenyl)cyclobutyl)acetic acid] here?
A: 48 nM

Q: Which EC50 [2] does the source give for `CC#C[C@@H](CC(=O)O)c1ccc(OCc2ccc3scc(-c4ccc(OCCOC)cc4C)c3c2)nc1` [Cpd 77, (3R)-3-(6-((3-(4-(2-Methoxyethoxy)-2-methylphenyl)benzo[b]thiophen-5-yl)methoxy)pyridin-3-yl)hex-4-ynoic acid] here?
A: 16 nM and 6 nM and 5 nM

Q: `CC#CC(CC(=O)O)c1ccc(OCc2ccc3scc(-c4ccccc4C)c3c2)cc1` (stereo not shown) [Cpd 97, 3-(4-((3-(2-Methylphenyl)benzo[b]thiophen-5-yl)methoxy)phenyl)hex-4-ynoic acid] was tested. Which EC50 [2] did it give?
A: 4 nM
